Assay results published in the NIST ThermoML archive (doi:10.1016/j.jct.2012.08.030).
Numbers after ± are expanded uncertainties.

Legend:
[1] = refractive index (Na D-line) (dimensionless); xn = mol fraction of the nth substance listed; conditions: 101.3 kPa, Liquid, Standard Abbe refractometry
[2] = xn = mol fraction of the nth substance listed; conditions: 101.3 kPa, Liquid; for speed of sound: Sing-around technique in a fixed-path interferometer; for mass density: Vibrating tube method

CCCCn1cc[n+](C)c1.COS(=O)(=O)[O-] [1-butyl-3-methylimidazolium methyl sulfate] + CC(C)O
refractive index ([1]; 298.15 K, x1 = 0.0482): 1.38886 ± 0.00033 | refractive index ([1]; 298.15 K, x1 = 0.0965): 1.40004 ± 0.00034 | refractive index ([1]; 298.15 K, x1 = 0.1938): 1.41819 ± 0.00037 | refractive index ([1]; 298.15 K, x1 = 0.2928): 1.43226 ± 0.0004 | refractive index ([1]; 298.15 K, x1 = 0.3902): 1.44304 ± 0.00043 | refractive index ([1]; 298.15 K, x1 = 0.496): 1.45252 ± 0.00047 | refractive index ([1]; 298.15 K, x1 = 0.5903): 1.45942 ± 0.0005 | refractive index ([1]; 298.15 K, x1 = 0.6902): 1.46547 ± 0.00054 | refractive index ([1]; 298.15 K, x1 = 0.7978): 1.47086 ± 0.00059 | refractive index ([1]; 298.15 K, x1 = 0.9531): 1.47709 ± 0.00065 | refractive index ([1]; 298.15 K, x1 = 1): 1.47824 ± 0.00068 | refractive index ([1]; 303.15 K, x1 = 0.0482): 1.38696 ± 0.00033 | refractive index ([1]; 303.15 K, x1 = 0.0965): 1.39831 ± 0.00034 | refractive index ([1]; 303.15 K, x1 = 0.1938): 1.41666 ± 0.00037 | refractive index ([1]; 303.15 K, x1 = 0.2928): 1.43067 ± 0.0004 | refractive index ([1]; 303.15 K, x1 = 0.3902): 1.44158 ± 0.00043 | refractive index ([1]; 303.15 K, x1 = 0.496): 1.45108 ± 0.00047 | refractive index ([1]; 303.15 K, x1 = 0.5903): 1.458 ± 0.0005 | refractive index ([1]; 303.15 K, x1 = 0.6902): 1.46409 ± 0.00054 | refractive index ([1]; 303.15 K, x1 = 0.7978): 1.46948 ± 0.00059 | refractive index ([1]; 303.15 K, x1 = 0.9531): 1.47576 ± 0.00065 | refractive index ([1]; 303.15 K, x1 = 1): 1.47704 ± 0.00068 | refractive index ([1]; 308.15 K, x1 = 0.0482): 1.38495 ± 0.00033 | refractive index ([1]; 308.15 K, x1 = 0.0965): 1.39643 ± 0.00034 | refractive index ([1]; 308.15 K, x1 = 0.1938): 1.41492 ± 0.00037 | refractive index ([1]; 308.15 K, x1 = 0.2928): 1.42902 ± 0.0004 | refractive index ([1]; 308.15 K, x1 = 0.3902): 1.44001 ± 0.00043 | refractive index ([1]; 308.15 K, x1 = 0.496): 1.44958 ± 0.00047 | refractive index ([1]; 308.15 K, x1 = 0.5903): 1.45655 ± 0.0005 | refractive index ([1]; 308.15 K, x1 = 0.6902): 1.46268 ± 0.00054 | refractive index ([1]; 308.15 K, x1 = 0.7978): 1.4681 ± 0.00059 | refractive index ([1]; 308.15 K, x1 = 0.9531): 1.47442 ± 0.00065 | refractive index ([1]; 308.15 K, x1 = 1): 1.47577 ± 0.00068 | refractive index ([1]; 313.15 K, x1 = 0.0482): 1.38288 ± 0.00033 | refractive index ([1]; 313.15 K, x1 = 0.0965): 1.3945 ± 0.00034 | refractive index ([1]; 313.15 K, x1 = 0.1938): 1.41317 ± 0.00037 | refractive index ([1]; 313.15 K, x1 = 0.2928): 1.4274 ± 0.0004 | refractive index ([1]; 313.15 K, x1 = 0.3902): 1.43845 ± 0.00043 | refractive index ([1]; 313.15 K, x1 = 0.496): 1.44808 ± 0.00047 | refractive index ([1]; 313.15 K, x1 = 0.5903): 1.4551 ± 0.0005 | refractive index ([1]; 313.15 K, x1 = 0.6902): 1.46125 ± 0.00054 | refractive index ([1]; 313.15 K, x1 = 0.7978): 1.46674 ± 0.00059 | refractive index ([1]; 313.15 K, x1 = 0.9531): 1.47306 ± 0.00065 | refractive index ([1]; 313.15 K, x1 = 1): 1.47443 ± 0.00068 | speed of sound ([2]; 298.15 K, x1 = 0.0482): 1181.2 ± 0.87 m/s | speed of sound ([2]; 298.15 K, x1 = 0.0965): 1219.7 ± 0.97 m/s | speed of sound ([2]; 298.15 K, x1 = 0.1938): 1292.5 ± 1.2 m/s | speed of sound ([2]; 298.15 K, x1 = 0.2928): 1358.2 ± 1.4 m/s | speed of sound ([2]; 298.15 K, x1 = 0.3902): 1415 ± 1.6 m/s | speed of sound ([2]; 298.15 K, x1 = 0.496): 1470.4 ± 1.9 m/s | speed of sound ([2]; 298.15 K, x1 = 0.5903): 1514.7 ± 2.1 m/s | speed of sound ([2]; 298.15 K, x1 = 0.6902): 1556.5 ± 2.4 m/s | speed of sound ([2]; 298.15 K, x1 = 0.7978): 1596.4 ± 2.6 m/s | speed of sound ([2]; 298.15 K, x1 = 0.9531): 1642.9 ± 3 m/s | speed of sound ([2]; 298.15 K, x1 = 1): 1654.6 ± 3.1 m/s | mass density ([2]; 298.15 K, x1 = 0.0482): 835.17 ± 0.25 kg/m3 | mass density ([2]; 298.15 K, x1 = 0.0965): 880.673 ± 0.23 kg/m3 | mass density ([2]; 298.15 K, x1 = 0.1938): 955.343 ± 0.26 kg/m3 | mass density ([2]; 298.15 K, x1 = 0.2928): 1013.5 ± 0.36 kg/m3 | mass density ([2]; 298.15 K, x1 = 0.3902): 1059.05 ± 0.55 kg/m3 | mass density ([2]; 298.15 K, x1 = 0.496): 1099.29 ± 0.81 kg/m3 | mass density ([2]; 298.15 K, x1 = 0.5903): 1128.61 ± 1.1 kg/m3 | mass density ([2]; 298.15 K, x1 = 0.6902): 1154.5 ± 1.4 kg/m3 | mass density ([2]; 298.15 K, x1 = 0.7978): 1177.96 ± 1.9 kg/m3 | mass density ([2]; 298.15 K, x1 = 0.9531): 1205.6 ± 2.6 kg/m3 | mass density ([2]; 298.15 K, x1 = 1): 1212.06 ± 2.8 kg/m3 | speed of sound ([2]; 303.15 K, x1 = 0.0482): 1165.3 ± 0.87 m/s | speed of sound ([2]; 303.15 K, x1 = 0.0965): 1204.4 ± 0.97 m/s | speed of sound ([2]; 303.15 K, x1 = 0.1938): 1278.2 ± 1.2 m/s | speed of sound ([2]; 303.15 K, x1 = 0.2928): 1344.3 ± 1.4 m/s | speed of sound ([2]; 303.15 K, x1 = 0.3902): 1401.7 ± 1.6 m/s | speed of sound ([2]; 303.15 K, x1 = 0.496): 1457.6 ± 1.9 m/s | speed of sound ([2]; 303.15 K, x1 = 0.5903): 1502.1 ± 2.1 m/s | speed of sound ([2]; 303.15 K, x1 = 0.6902): 1544.2 ± 2.4 m/s | speed of sound ([2]; 303.15 K, x1 = 0.7978): 1584.2 ± 2.6 m/s | speed of sound ([2]; 303.15 K, x1 = 0.9531): 1630.7 ± 3 m/s | speed of sound ([2]; 303.15 K, x1 = 1): 1642.2 ± 3.1 m/s | mass density ([2]; 303.15 K, x1 = 0.0482): 831.096 ± 0.26 kg/m3 | mass density ([2]; 303.15 K, x1 = 0.0965): 876.702 ± 0.23 kg/m3 | mass density ([2]; 303.15 K, x1 = 0.1938): 951.52 ± 0.26 kg/m3 | mass density ([2]; 303.15 K, x1 = 0.2928): 1009.8 ± 0.36 kg/m3 | mass density ([2]; 303.15 K, x1 = 0.3902): 1055.42 ± 0.54 kg/m3 | mass density ([2]; 303.15 K, x1 = 0.496): 1095.74 ± 0.8 kg/m3 | mass density ([2]; 303.15 K, x1 = 0.5903): 1125.13 ± 1.1 kg/m3 | mass density ([2]; 303.15 K, x1 = 0.6902): 1151.05 ± 1.4 kg/m3 | mass density ([2]; 303.15 K, x1 = 0.7978): 1174.52 ± 1.8 kg/m3 | mass density ([2]; 303.15 K, x1 = 0.9531): 1202.22 ± 2.6 kg/m3 | mass density ([2]; 303.15 K, x1 = 1): 1208.7 ± 2.8 kg/m3 | speed of sound ([2]; 308.15 K, x1 = 0.0482): 1148.9 ± 0.87 m/s | speed of sound ([2]; 308.15 K, x1 = 0.0965): 1188.9 ± 0.97 m/s | speed of sound ([2]; 308.15 K, x1 = 0.1938): 1263.7 ± 1.2 m/s | speed of sound ([2]; 308.15 K, x1 = 0.2928): 1330.4 ± 1.4 m/s | speed of sound ([2]; 308.15 K, x1 = 0.3902): 1388.3 ± 1.6 m/s | speed of sound ([2]; 308.15 K, x1 = 0.496): 1444.6 ± 1.9 m/s | speed of sound ([2]; 308.15 K, x1 = 0.5903): 1489.5 ± 2.1 m/s | speed of sound ([2]; 308.15 K, x1 = 0.6902): 1531.7 ± 2.4 m/s | speed of sound ([2]; 308.15 K, x1 = 0.7978): 1571.9 ± 2.6 m/s | speed of sound ([2]; 308.15 K, x1 = 0.9531): 1618.5 ± 3 m/s | speed of sound ([2]; 308.15 K, x1 = 1): 1630 ± 3.1 m/s | mass density ([2]; 308.15 K, x1 = 0.0482): 826.964 ± 0.26 kg/m3 | mass density ([2]; 308.15 K, x1 = 0.0965): 872.696 ± 0.23 kg/m3 | mass density ([2]; 308.15 K, x1 = 0.1938): 947.68 ± 0.26 kg/m3 | mass density ([2]; 308.15 K, x1 = 0.2928): 1006.09 ± 0.35 kg/m3 | mass density ([2]; 308.15 K, x1 = 0.3902): 1051.78 ± 0.54 kg/m3 | mass density ([2]; 308.15 K, x1 = 0.496): 1092.2 ± 0.8 kg/m3 | mass density ([2]; 308.15 K, x1 = 0.5903): 1121.71 ± 1.1 kg/m3 | mass density ([2]; 308.15 K, x1 = 0.6902): 1147.61 ± 1.4 kg/m3 | mass density ([2]; 308.15 K, x1 = 0.7978): 1171.15 ± 1.8 kg/m3 | mass density ([2]; 308.15 K, x1 = 0.9531): 1198.85 ± 2.6 kg/m3 | mass density ([2]; 308.15 K, x1 = 1): 1205.35 ± 2.8 kg/m3 | speed of sound ([2]; 313.15 K, x1 = 0.0482): 1132.5 ± 0.86 m/s | speed of sound ([2]; 313.15 K, x1 = 0.0965): 1173.3 ± 0.96 m/s | speed of sound ([2]; 313.15 K, x1 = 0.1938): 1249.1 ± 1.2 m/s | speed of sound ([2]; 313.15 K, x1 = 0.2928): 1316.5 ± 1.4 m/s | speed of sound ([2]; 313.15 K, x1 = 0.3902): 1375 ± 1.6 m/s | speed of sound ([2]; 313.15 K, x1 = 0.496): 1431.8 ± 1.9 m/s | speed of sound ([2]; 313.15 K, x1 = 0.5903): 1476.9 ± 2.1 m/s | speed of sound ([2]; 313.15 K, x1 = 0.6902): 1519.4 ± 2.4 m/s | speed of sound ([2]; 313.15 K, x1 = 0.7978): 1559.7 ± 2.6 m/s | speed of sound ([2]; 313.15 K, x1 = 0.9531): 1606.4 ± 3 m/s | speed of sound ([2]; 313.15 K, x1 = 1): 1617.9 ± 3.1 m/s | mass density ([2]; 313.15 K, x1 = 0.0482): 822.774 ± 0.26 kg/m3 | mass density ([2]; 313.15 K, x1 = 0.0965): 868.646 ± 0.23 kg/m3 | mass density ([2]; 313.15 K, x1 = 0.1938): 943.827 ± 0.27 kg/m3 | mass density ([2]; 313.15 K, x1 = 0.2928): 1002.39 ± 0.35 kg/m3 | mass density ([2]; 313.15 K, x1 = 0.3902): 1048.13 ± 0.53 kg/m3 | mass density ([2]; 313.15 K, x1 = 0.496): 1088.68 ± 0.79 kg/m3 | mass density ([2]; 313.15 K, x1 = 0.5903): 1118.31 ± 1.1 kg/m3 | mass density ([2]; 313.15 K, x1 = 0.6902): 1144.23 ± 1.4 kg/m3 | mass density ([2]; 313.15 K, x1 = 0.7978): 1167.77 ± 1.8 kg/m3 | mass density ([2]; 313.15 K, x1 = 0.9531): 1195.49 ± 2.5 kg/m3 | mass density ([2]; 313.15 K, x1 = 1): 1202.01 ± 2.8 kg/m3
